Patent publication US20070066682A1, “Arylalkylamine vanadium (V) salts for the treatment and/or prevention of Diabetes mellitus” (priority 2005, published 2007)

What was measured:
[1] = molecular target: T1, mouse SSAO (Mus musculus, UniProt O70423); assay: SSAO activity, hydrogen peroxide production relative to benzylamine (mouse); assay type: biochemical; settings: compound at 100 μM
T1 sequence (O70423 1-765): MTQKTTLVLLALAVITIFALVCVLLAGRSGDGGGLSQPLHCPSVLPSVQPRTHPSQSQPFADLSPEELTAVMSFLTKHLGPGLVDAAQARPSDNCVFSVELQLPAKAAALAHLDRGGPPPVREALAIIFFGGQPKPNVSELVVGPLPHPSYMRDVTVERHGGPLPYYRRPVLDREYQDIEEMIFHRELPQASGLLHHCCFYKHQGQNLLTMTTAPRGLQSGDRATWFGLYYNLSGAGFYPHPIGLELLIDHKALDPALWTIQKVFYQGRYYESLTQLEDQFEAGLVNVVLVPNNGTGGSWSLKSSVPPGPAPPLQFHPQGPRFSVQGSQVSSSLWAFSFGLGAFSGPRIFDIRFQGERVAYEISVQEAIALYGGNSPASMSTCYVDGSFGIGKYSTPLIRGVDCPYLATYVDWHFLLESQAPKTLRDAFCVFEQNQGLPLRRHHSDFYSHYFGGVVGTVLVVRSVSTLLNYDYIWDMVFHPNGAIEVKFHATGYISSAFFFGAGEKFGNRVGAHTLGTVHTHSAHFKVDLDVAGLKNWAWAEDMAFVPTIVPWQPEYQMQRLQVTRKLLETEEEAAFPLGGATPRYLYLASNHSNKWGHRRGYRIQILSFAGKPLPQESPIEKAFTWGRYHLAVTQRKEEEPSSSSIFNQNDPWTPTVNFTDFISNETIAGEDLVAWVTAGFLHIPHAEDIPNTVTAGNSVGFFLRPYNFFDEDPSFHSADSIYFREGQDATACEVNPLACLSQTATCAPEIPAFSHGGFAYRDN
Method: (§1) The continuous spectrophotometric detection of SSAO-dependent H2O2 production based on a peroxidase-coupled reaction was performed as previously described by Abella et al. (2004, Diabetologia 47: 429-438) and following the procedure described by Holt et al., (1997, Anal. Biochem. 244: 384-392).
(§2) Compounds listed in Table 1 were prepared according to the methods described above, purity was determined by HPLC at 220 nm, molecular weight calculated by mass spectrometer. Human and mouse SSAO activity was determined by detecting the production of hydrogene peroxide in the presence of the different compounds present at 1 mM for human and 100 μM for mice activity measurements. Compounds in Table 2″ were similarly assayed. Values are means of percentages relative to benzylamine-related hydrogen production. Kinetic Parameters for select compounds are set forth in Table 3 (Mouse SSAO) and Table 4 (Human SSAO).

[2] = molecular target: T2, Human SSAO (Homo sapiens, UniProt Q16853); assay: SSAO activity, hydrogen peroxide production relative to benzylamine (human); assay type: biochemical; settings: compound at 1 mM
T2 sequence (Q16853 1-763): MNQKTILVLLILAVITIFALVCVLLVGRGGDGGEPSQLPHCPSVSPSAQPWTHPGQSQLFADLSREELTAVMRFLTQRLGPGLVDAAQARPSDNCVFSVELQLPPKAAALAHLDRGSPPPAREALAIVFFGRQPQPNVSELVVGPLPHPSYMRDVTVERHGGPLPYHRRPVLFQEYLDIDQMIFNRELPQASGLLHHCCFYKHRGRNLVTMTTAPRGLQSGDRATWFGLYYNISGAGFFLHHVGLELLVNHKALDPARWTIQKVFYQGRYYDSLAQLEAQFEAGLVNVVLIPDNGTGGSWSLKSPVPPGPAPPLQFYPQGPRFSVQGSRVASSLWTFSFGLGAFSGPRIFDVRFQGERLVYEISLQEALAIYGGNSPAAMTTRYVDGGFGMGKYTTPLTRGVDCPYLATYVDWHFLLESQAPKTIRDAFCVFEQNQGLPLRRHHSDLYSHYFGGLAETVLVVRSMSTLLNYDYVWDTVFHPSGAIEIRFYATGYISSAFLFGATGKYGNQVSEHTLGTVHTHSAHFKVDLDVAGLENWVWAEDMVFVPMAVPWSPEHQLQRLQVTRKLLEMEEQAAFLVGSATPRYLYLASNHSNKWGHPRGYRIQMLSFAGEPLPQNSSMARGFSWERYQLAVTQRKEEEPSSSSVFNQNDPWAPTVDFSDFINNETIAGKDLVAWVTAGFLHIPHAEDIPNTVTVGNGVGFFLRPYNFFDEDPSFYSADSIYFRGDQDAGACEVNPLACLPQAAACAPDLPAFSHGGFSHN
Method: as §1, §2

Row | Structure (SMILES) | SSAO activity (% relative to benzylamine) Mouse [1] [%] | SSAO activity (% relative to benzylamine) Human [2] [%]
1 | NCc1ccc(C(=O)O)cc1 [Entry 27, 4-(aminomethyl)benzoic acid] | 4.06 | 0.00
2 | NCCc1ccc(F)cc1 [Entry 46, 2-(4-fluorophenyl)ethanamine] | 59.80 | 16.30
3 | NCc1c(O)ccc2ccccc12 [Entry 29, 1-(aminomethyl)naphthalen-2-ol] | 0.00 | 0.00
4 | NCc1ccc(O)c(Br)c1 [Entry 13, 4-(aminomethyl)-2-bromophenol] | 0.00 | 0.00
5 | NCCc1ccc(O)c(O)c1 [Entry 47, 4-(2-aminoethyl)benzene-1,2-diol] | 0.00 | 0.00
6 | COc1ccc(CN)c(OC)c1 [Entry 10, (2,4-dimethoxyphenyl)methanamine] | 0.00 | 0.00
7 | CCc1ccc(CN)cc1 [Entry 5] | 17.30 | 0.00
8 | NCc1ccc(CN)cc1 [Entry 25, 1,4-phenylene dimethanamine] | 0.00 | 0.00
9 | NCCCCc1ccccc1 [Entry 44, 4-phenylbutan-1-amine] | 61.18 | 147.63
10 | COc1ccc(CN)c2ccccc12 [Entry 28, (4-methoxynaphthalen-1-yl)methanamine] | 0.00 | 0.70
11 | NCc1ccccc1 [Entry 1, Benzylamine, reference compound] | 100 | 100
12 | COc1cccc(O)c1CN [Entry 19, 2-(aminomethyl)-3-methoxyphenol] | 0.00 | 0.00
13 | CC(C)(C)c1ccc(CN)cc1 [Entry 6, (4-tert-butylphenyl)methanamine] | 1.00 | 0.00
14 | COc1cc(CN)cc(OC)c1 [Entry 24, (3,5-dimethoxyphenyl)methanamine] | 0.75 | 0.00
15 | NCCCc1ccccc1 [Entry 42, 3-phenylpropan-1-amine] | 44.80 | 60.30
16 | NCCc1ccccc1 [Entry 41, 2-phenylethanamine] | 6.80 | 8.20
17 | NCc1ccc(C(F)(F)F)cc1 [Entry 8, (4-(trifluoromethyl)phenyl)methanamine] | 83.00 | 0.50
18 | COc1ccc(CN)cc1 [Entry 22, (4-methoxyphenyl)methanamine] | 4.56 | 0.00

Row | Structure (SMILES) | SSAO activity (% relative to benzylamine) Mouse [1] [%] | SSAO activity (% relative to benzylamine) Human [2] [%]
19 | NCc1ccc(F)cc1 [Entry 3, (4-fluorophenyl)methanamine] | 77.20 | 31.70
20 | NCc1cccc2c1OCCO2 [Entry 21, (2,3-dihydrobenzo-[b][1,4]dioxin-5-yl)methanamine] | 12.36 | 0.00
21 | NCc1ccc(-c2ccccc2)cc1 [Entry 15, biphenyl-4-yl-methanamine] | 3.77 | 0.00
22 | NCc1cccc(CN)c1 [Entry 26, 1,3-phenylene dimethanamine] | 0.00 | 0.00
23 | COc1cccc2[nH]cc(CN)c12 [Entry 45, (4-methoxy-1H-indol-3-yl)methanamine] | 5.54 | 0.00
24 | Cc1ccc(CN)cc1 [Entry 4, p-tolylmethanamine] | 0.00 | 0.00
25 | NCc1cccc([N+](=O)[O-])c1O [Entry 14, 2-(aminomethyl)-6-nitrophenol] | 5.47 | 0.11
26 | NCc1ccccc1F [Entry 23, (2-fluorophenyl)methanamine] | 44.0 | 1.3
27 | COc1cc(F)cc(CN)c1 [Entry 17, (3-fluoro-5-methoxyphenyl)methanamine] | 4.86 | 2.53
28 | NCc1ccc(OCc2ccccc2)cc1 [Entry 20, (4-(benzyloxy)phenyl)methanamine] | 0.0 | 0.0
29 | CC(C)c1ccc(CN)cc1 [Entry 7, (4-isopropylphenyl)methanamine] | 0.00 | 0.00
30 | Cc1ccc(CN)cc1F [Entry 16, (3-fluoro-4-methylphenyl)methanamine] | 33.49 | 7.07
31 | NCc1ccc(OC(F)(F)F)cc1 [Entry 9, (4-(trifluoromethoxy)phenyl)methanamine] | 66.20 | 0.00
32 | CC(N)c1cccc2ccccc12 (stereo not shown) [Entry 30, 1-(naphthalen-1-yl)ethanamine] | 0.00 | 11.00
33 | NCCOc1ccccc1 [Entry 43, 2-phenoxyethanamine] | 14.60 | 17.93
34 | CCCCc1ccc(CN)cc1 [Entry 11, (4-butylphenyl)methanamine] | 27.00 | 0.00
35 | COc1ccc(CCN)cc1OC [Entry 48, 2-(3,4-dimethoxyphenyl)ethanamine] | 3.80 | 0.00
